The results in this text go back to US20140315876A1, “BETA-LACTAMASE INHIBITORS” (priority 2013, published 2014).

For assay [1], the system named is bacterial strains that express KPC β-lactamases. The assay can be described thus: Synergy MIC / standard BLI potentiation MIC assay, strains expressing KPC β-lactamases. Type of assay: cell-based. To be noted: more active for at least one KPC strain and/or better spectrum of activity than Avibactam; in the presence of a β-lactam. The procedure:
(§1) The experimental protocol was performed according to Clinical and Laboratory Standards Institute (CLSI) guidelines with modifications as described below (CLSI guidelines can be derived from the CLSI document M07-A9 published in January 2012: “Methods for Dilution Antimicrobial Susceptibility Tests for Bacteria That Grow Aerobically; Approved Standard-Ninth Edition”).
(§2) To prepare for MIC testing, frozen glycerol stocks of clinical isolates (Klebsiella pneumoniae, Eschericia coli, Enterobacter spp, Citrobacter spp, or Pseudomonas aeruginosa) were used to streak for isolated colonies on rich, non-selective, tryptic soy agar containing 5% sheep's blood (TSAB). Frozen glycerol stocks of laboratory engineered, isogenic E. coli strains, which contain cloned β-lactamase expressing plasmids were used to streak for isolated colonies on rich, selective LB agar supplemented with 25 μg/mL tetracycline to maintain the plasmid. All strains were incubated at 37° C. for 18-24 hrs.
(§3) On the day of testing, primary cultures were started by scraping off 5-10 colonies from the TSAB plates containing clinical strains or the tetracycline supplemented LB plates containing engineered strains. The clinical strain material was suspended in ˜5 mL of cation adjusted Mueller Hinton Broth (CAMHB) in 14 mL culture tubes. The engineered strain material was suspended in CAMHB (supplemented with 25 μg/mL tetracycline) in 14 mL culture tubes. All strains were incubated at 37° C. with aeration (200 rpm) for ˜2 hrs until the optical density at 600 nm (OD600) was ≧0.1.
(§4) The two compound components of the assay were each diluted in CAMHB and added to the 96-well broth microdilution assay plates. 50 μL of the β-lactam was added to each well of the assay plate in 2-fold dilutions with final concentrations ranging from 128 to 0.13 μg/mL. 25 μL of the BLI compound was added to all wells in the broth microdilution plates at a final concentration of 4 μg/mL. Inoculum cultures were prepared by standardizing the primary cultures to OD600=0.1 and then adding 20 μL of the adjusted primary culture per 1 mL CAMHB for clinical strains or CAMHB (supplemented with tetracycline at 100 μg/mL) for engineered strains, so that the final inoculum density was ˜10^5 colony forming units per milliliter. Diluted inoculum cultures were used to inoculate 25 μL per well in 96-well broth microdilution assay plates. The final volume of each well was 100 μL and contained a β-lactam at different concentrations, a BLI compound at 4 μg/mL concentration, the bacterial culture at an OD600 of approximately 0.001 and when necessary tetracycline at 25 μg/mL.
(§5) Plates were incubated for 18-20 hours at 37° C. with aeration (200 rpm). Following incubation, growth was confirmed visually placing plates over a viewing apparatus (stand with a mirror underneath) and then OD600 was measured using a SpectraMax 340PC384 plate reader (Molecular Devices, Sunnyvale, Calif.). Growth was defined as turbidity that could be detected with the naked eye or achieving minimum OD600 of 0.1. MIC values were defined as the lowest concentration producing no visible turbidity.
(§6) The synergy MIC (sMIC) assay determines the concentration of the BLI required to potentiate the activity of a fixed concentration of a β-lactam antibiotic against β-lactamase producing bacterial strains. The experimental protocol was performed according to Clinical and Laboratory Standards Institute (CLSI) guidelines with modifications as described below (CLSI guidelines can be derived from the CLSI document M07-A9 published in January 2012: “Methods for Dilution Antimicrobial Susceptibility Tests for Bacteria That Grow Aerobically; Approved Standard-Ninth Edition”). […]

Assay [2] concerns bacterial strains that express the class D cephalosporinase OXA-15. The assay can be described thus: Synergy MIC / standard BLI potentiation MIC assay, strains expressing OXA-15. As to conditions: in the presence of a β-lactam; comparator Avibactam (comparator compound CCC). Type of assay: cell-based, E. coli. The procedure:
as §1, §2, §3, §4, §5, §6

The structures appear in SMILES notation. Counter-ions that a name gives are not always drawn.

Take `N[C@H]1C[C@H](c2nnc([C@@H]3CC[C@@H]4CN3C(=O)N4OS(=O)(=O)O)o2)C1` [Compound 727, (2S,5R)-2-(5-((1r,3S)-3-aminocyclobutyl)-1,3,4-oxadiazol-2-yl)-7-oxo-1,6-diazabicyclo[3.2.1]octan-6-yl hydrogen sulfate]: in assay [1], the “activity and/or spectrum of activity against bacterial strains that express KPC β-lactamases, compared with Avibactam” value was “more active than Avibactam”. In addition, in assay [2], the “activity against bacterial strains that express the class D cephalosporinase OXA-15, compared with Avibactam” value is on record as “more active than Avibactam”.
Consider `N[C@H]1C[C@@H](Cc2nnc([C@@H]3CC[C@@H]4CN3C(=O)N4OS(=O)(=O)O)o2)C1` [Compound 728, (2S,5R)-2-(5-(((1s,3R)-3-aminocyclobutyl)methyl)-1,3,4-oxadiazol-2-yl)-7-oxo-1,6-diazabicyclo[3.2.1]octan-6-yl hydrogen sulfate], for which the “activity and/or spectrum of activity against bacterial strains that express KPC β-lactamases, compared with Avibactam” value in assay [1] was “more active than Avibactam”. Also, the “activity against bacterial strains that express the class D cephalosporinase OXA-15, compared with Avibactam” value in assay [2] is listed as “more active than Avibactam”.
For `N[C@@H]1CC[C@H](c2nnc([C@@H]3CC[C@@H]4CN3C(=O)N4OS(=O)(=O)O)o2)C1` [Compound 729, (2S,5R)-2-(5-((1S,3R)-3-aminocyclopentyl)-1,3,4-oxadiazol-2-yl)-7-oxo-1,6-diazabicyclo[3.2.1]octan-6-yl hydrogen sulfate], the “activity and/or spectrum of activity against bacterial strains that express KPC β-lactamases, compared with Avibactam” value in assay [1] is on record as “more active than Avibactam”. Moreover, the “activity against bacterial strains that express the class D cephalosporinase OXA-15, compared with Avibactam” value in assay [2] is recorded as “more active than Avibactam”.
As for `N=C(N)NCC(O)Cc1nnc([C@@H]2CC[C@@H]3CN2C(=O)N3OS(=O)(=O)O)o1` (stereo partly drawn) [Compound 730, (2S,5R)-2-(5-(3-guanidino-2-hydroxypropyl)-1,3,4-oxadiazol-2-yl)-7-oxo-1,6-diazabicyclo[3.2.1]octan-6-yl hydrogen sulfate], the “activity and/or spectrum of activity against bacterial strains that express KPC β-lactamases, compared with Avibactam” value in assay [1] is on record as “more active than Avibactam”. For the same compound, the “activity against bacterial strains that express the class D cephalosporinase OXA-15, compared with Avibactam” value in assay [2] is given as “more active than Avibactam”.
`N=C(N)NC[C@@H](O)c1nnc([C@@H]2CC[C@@H]3CN2C(=O)N3OS(=O)(=O)O)o1` [Compound 731, (2S,5R)-2-(5-((R)-2-guanidino-1-hydroxyethyl)-1,3,4-oxadiazol-2-yl)-7-oxo-1,6-diazabicyclo[3.2.1]octan-6-yl hydrogen sulfate]: the “activity and/or spectrum of activity against bacterial strains that express KPC β-lactamases, compared with Avibactam” value in assay [1] is recorded as “more active than Avibactam”. The “activity against bacterial strains that express the class D cephalosporinase OXA-15, compared with Avibactam” value in assay [2] was “more active than Avibactam”.
`N=C(N)NC[C@H](O)c1nnc([C@@H]2CC[C@@H]3CN2C(=O)N3OS(=O)(=O)O)o1` [Compound 732, (2S,5R)-2-(5-((S)-2-guanidino-1-hydroxyethyl)-1,3,4-oxadiazol-2-yl)-7-oxo-1,6-diazabicyclo[3.2.1]octan-6-yl hydrogen sulfate]: the “activity and/or spectrum of activity against bacterial strains that express KPC β-lactamases, compared with Avibactam” value in assay [1] was “more active than Avibactam”. Also, in assay [2], the “activity against bacterial strains that express the class D cephalosporinase OXA-15, compared with Avibactam” value is “more active than Avibactam”.
For the compound `CNCCCc1nnc([C@@H]2CC[C@@H]3CN2C(=O)N3OS(=O)(=O)O)o1` [Compound 734, (2S,5R)-2-(5-(3-(methylamino)propyl)-1,3,4-oxadiazol-2-yl)-7-oxo-1,6-diazabicyclo[3.2.1]octan-6-yl hydrogen sulfate], the “activity and/or spectrum of activity against bacterial strains that express KPC β-lactamases, compared with Avibactam” value in assay [1] is on record as “more active than Avibactam”. Further, the “activity against bacterial strains that express the class D cephalosporinase OXA-15, compared with Avibactam” value in assay [2] was “more active than Avibactam”.
Turning to `NCCCCc1nnc([C@@H]2CC[C@@H]3CN2C(=O)N3OS(=O)(=O)O)o1` [Compound 735, (2S,5R)-2-(5-(4-aminobutyl)-1,3,4-oxadiazol-2-yl)-7-oxo-1,6-diazabicyclo[3.2.1]octan-6-yl hydrogen sulfate], the “activity and/or spectrum of activity against bacterial strains that express KPC β-lactamases, compared with Avibactam” value in assay [1] is “more active than Avibactam”. Moreover, the “activity against bacterial strains that express the class D cephalosporinase OXA-15, compared with Avibactam” value in assay [2] is recorded as “more active than Avibactam”.
`O=C1N2C[C@@H](CC[C@H]2c2nnc(CCNCCO)o2)N1OS(=O)(=O)O` [Compound 736, (2S,5R)-2-(5-(2-((2-hydroxyethyl)amino)ethyl)-1,3,4-oxadiazol-2-yl)-7-oxo-1,6-diazabicyclo[3.2.1]octan-6-yl hydrogen sulfate]: the “activity and/or spectrum of activity against bacterial strains that express KPC β-lactamases, compared with Avibactam” value in assay [1] is recorded as “more active than Avibactam”. In addition, the “activity against bacterial strains that express the class D cephalosporinase OXA-15, compared with Avibactam” value in assay [2] is listed as “more active than Avibactam”.
Consider `CC(C)(N)Cc1nnc([C@@H]2CC[C@@H]3CN2C(=O)N3OS(=O)(=O)O)o1` [Compound 737, (2S,5R)-2-(5-(2-amino-2-methylpropyl)-1,3,4-oxadiazol-2-yl)-7-oxo-1,6-diazabicyclo[3.2.1]octan-6-yl hydrogen sulfate], for which the “activity and/or spectrum of activity against bacterial strains that express KPC β-lactamases, compared with Avibactam” value in assay [1] is reported as “more active than Avibactam”. The “activity against bacterial strains that express the class D cephalosporinase OXA-15, compared with Avibactam” value in assay [2] is “more active than Avibactam”.
On to `N=C(N)Nc1nnc([C@@H]2CC[C@@H]3CN2C(=O)N3OS(=O)(=O)O)o1` [Compound 738, (2S,5R)-2-(5-guanidino-1,3,4-oxadiazol-2-yl)-7-oxo-1,6-diazabicyclo[3.2.1]octan-6-yl hydrogen sulfate], for which the “activity and/or spectrum of activity against bacterial strains that express KPC β-lactamases, compared with Avibactam” value in assay [1] is listed as “more active than Avibactam”. Further, the “activity against bacterial strains that express the class D cephalosporinase OXA-15, compared with Avibactam” value in assay [2] is given as “more active than Avibactam”.
Consider `N=C(N)NC1(Cc2nnc([C@@H]3CC[C@@H]4CN3C(=O)N4OS(=O)(=O)O)o2)CC1` [Compound 739, (2S,5R)-2-(5-((1-guanidinocyclopropyl)methyl)-1,3,4-oxadiazol-2-yl)-7-oxo-1,6-diazabicyclo[3.2.1]octan-6-yl hydrogen sulfate], for which, in assay [1], the “activity and/or spectrum of activity against bacterial strains that express KPC β-lactamases, compared with Avibactam” value is given as “more active than Avibactam”. Besides, the “activity against bacterial strains that express the class D cephalosporinase OXA-15, compared with Avibactam” value in assay [2] is “more active than Avibactam”.
`O=C1N2C[C@@H](CC[C@H]2c2nnc([C@H]3[C@@H]4CNC[C@@H]43)o2)N1OS(=O)(=O)O` [Compound 740, (2S,5R)-2-(5-(3-azabicyclo[3.1.0]hexan-6-yl)-1,3,4-oxadiazol-2-yl)-7-oxo-1,6-diazabicyclo[3.2.1]octan-6-yl hydrogen sulfate]: in assay [1], the “activity and/or spectrum of activity against bacterial strains that express KPC β-lactamases, compared with Avibactam” value is recorded as “more active than Avibactam”. For the same compound, in assay [2], the “activity against bacterial strains that express the class D cephalosporinase OXA-15, compared with Avibactam” value is “more active than Avibactam”.
Turning to `N=C(N)N1CC(Cc2nnc([C@@H]3CC[C@@H]4CN3C(=O)N4OS(=O)(=O)O)o2)C1` [Compound 741, (2S,5R)-2-(5-((1-carbamimidoylazetidin-3-yl)methyl)-1,3,4-oxadiazol-2-yl)-7-oxo-1,6-diazabicyclo[3.2.1]octan-6-yl hydrogen sulfate], the “activity and/or spectrum of activity against bacterial strains that express KPC β-lactamases, compared with Avibactam” value in assay [1] was “more active than Avibactam”. Besides, in assay [2], the “activity against bacterial strains that express the class D cephalosporinase OXA-15, compared with Avibactam” value was “more active than Avibactam”.
As for `O=C1N2C[C@@H](CC[C@H]2c2nnc(CCC3CNC3)o2)N1OS(=O)(=O)O` [Compound 742, (2S,5R)-2-(5-(2-(azetidin-3-yl)ethyl)-1,3,4-oxadiazol-2-yl)-7-oxo-1,6-diazabicyclo[3.2.1]octan-6-yl hydrogen sulfate], the “activity and/or spectrum of activity against bacterial strains that express KPC β-lactamases, compared with Avibactam” value in assay [1] was “more active than Avibactam”. The “activity against bacterial strains that express the class D cephalosporinase OXA-15, compared with Avibactam” value in assay [2] is recorded as “more active than Avibactam”.
